The nature of data set [1]: Half life of the compound in buffer. It counts as physicochemical.
The nature of data set [2]: Half life in potassium phosphate buffer by liquid chromatography-tandem mass spectrometry. It counts as physicochemical.
Data set [3] in a line: Covalent protein binding in human liver microsomes assessed per mg protein at 50 uM after 60 mins in presence of NADPH by LC-MS/MS method. The format is ADME, Microsome. As to conditions: 1 h. On the technique in general: Liver microsomes are vesicles of endoplasmic reticulum, rich in cytochrome P450 enzymes.
A short description of data set [4]: Half life of the compound at pH 7.4. The format is physicochemical.
Data set [5] can be described thus: Covalent protein binding in human liver microsomes assessed per mg protein at 10 uM preincubated for 5 mins followed by UDPGA addition and measured after 60 mins by liquid scintillation counting method. It counts as ADME, Microsome. Conditions: 1 h.
The nature of data set [6]: Half life of the compound. It counts as physicochemical.
Another data set in a line: in vitro. As to conditions: human, platelets.

We go through eleven compounds from ChEMBL document CHEMBL4616584, “Designing around Structural Alerts in Drug Discovery” (J Med Chem, 2020).

For orientation: half-life means how long it takes for the measured level to halve. Read a low half-life as fast loss. In general, fraction unbound refers to free concentration divided by total concentration. Read a low fraction unbound as extensive binding.

In data set [1], `Cc1cc(OCCCS(C)(=O)=O)cc(C)c1-c1cccc(COc2ccc3c(c2)OC[C@H]3CC(=O)O[C@H]2O[C@@H](C(=O)O)[C@H](O)[C@H](O)[C@@H]2O)c1` showed a half-life of 30 min. In data set [2], `Cc1cccc(Nc2ccccc2C(=O)O)c1C` [MEFENAMIC ACID] showed a half-life of 990 min. In the case of `CN1C(C(=O)Nc2nccs2)=C(O)c2ccccc2S1(=O)=O` [SUDOXICAM], in data set [3], the PB worked out at 1.4 pmol. For `CCCN(CCC)S(=O)(=O)c1ccc(C(=O)O)cc1` [PROBENECID], the half-life in data set [2] is 16.2 min. Consider `NC(=O)OCC(C=O)c1ccccc1` (configuration not stated), for which the half-life in data set [4] is < 0.5 min. `CC(C)Cc1ccc(CC(=O)O)cc1` [IBUFENAC] registered a PB in data set [5] of 1000 to 8600 pmol. Also, the half-life in data set [6] is 66 min.

`Cc1ccc(Cl)c(Nc2ccccc2C(=O)O)c1Cl` [MECLOFENAMIC ACID] showed a half-life in data set [2] of 1690 min. In turn, `CC(C)Cc1ccc(C(C)C(=O)O)cc1` (configuration not stated) [IBUPROFEN] gave a PB in data set [5] of 1000 to 8600 pmol. Consider `Cc1cnc(NC(=O)C2=C(O)c3ccccc3S(=O)(=O)N2C)s1` [MELOXICAM], for which, in data set [3], the PB amounted to 3.6 pmol. As to `Cc1cc(CC(=O)O)n(C)c1C(=O)c1ccc(Cl)cc1` [ZOMEPIRAC], the half-life in data set [1] was 30 min.

In the case of `COC(=O)[C@H](c1ccccc1Cl)N1CCc2sccc2C1` [CLOPIDOGREL], the fraction unbound in the data set “in vitro” was 0.98.
